Experimental data as given in patent US4595694A, “Azulene derivatives, processes of their synthesis and their uses as anti-ulcerative and anti-inflammatory agents” (Kotobuki Seiyaku Co. Ltd., priority 1983, dated 1986).
Structures can show the parent of a compound that is named as a salt. Values belong to the compound of their own block, whether it stands above or below them.

Legend:
[1] = target: T1, pepsin (Sus scrofa, UniProt P00791); experiment: Anti-peptic activity in vitro (bovine serum albumin as substrate); assay type: biochemical; details: for IC50: obtained graphically, read-out: ID50 (50% inhibiting dose) (converted); for inhibition at 125 µg/mL: sample concentration 0.125 mg/ml; for inhibition at 250 µg/mL: sample concentration 0.250 mg/ml; for inhibition at 500 µg/mL: sample concentration 0.500 mg/ml; for inhibition at 1000 µg/mL: sample concentration 1.000 mg/ml
T1 construct: purchased
T1 sequence (P00791 60-385): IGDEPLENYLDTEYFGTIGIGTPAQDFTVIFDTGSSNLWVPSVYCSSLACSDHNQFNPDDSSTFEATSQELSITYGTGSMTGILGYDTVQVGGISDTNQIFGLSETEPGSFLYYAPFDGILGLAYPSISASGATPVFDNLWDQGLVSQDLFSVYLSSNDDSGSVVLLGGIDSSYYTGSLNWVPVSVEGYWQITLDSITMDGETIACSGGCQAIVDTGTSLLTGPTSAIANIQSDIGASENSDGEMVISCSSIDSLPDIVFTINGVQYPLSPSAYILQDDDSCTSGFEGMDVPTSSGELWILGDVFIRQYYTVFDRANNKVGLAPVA
Method: Anti-peptic activity of the compounds is tested in vitro according to V. K. Thiemer (Arznei-Forsch 22 (6), PP. 1086, 1972), using bovine serum albumin as a substrate and commercially available pepsin.
Also ID50 (50% inhibiting dose) is obtained graphically.

[2] = Stability on storage (% residue of the original compound); assay type: physicochemical; details: for remaining at 96 h: 40° C.; for remaining at 192 h: 60° C.; for remaining at 240 h: 70° C.; for remaining at 288 h: 80° C.
From the text: The data are expressed in % residue of the original compounds after the storage in each condition.

[3] = test system: Shay's rat; experiment: Anti-ulcerative activity, pylorus ligation (Shay's rat); assay type: in vivo; details: perorally, 16 hours after ligation; for inhibition in vivo at 500 mg/kg / inhibition in vivo at 100 mg/kg: Rattus norvegicus, po, 16 h, read-out: % inhibition (ulcer index)
Method: In order to ascertain the anti-ulcerative activity […], Shay's rat (Gastro enterology 26, P. 906) is selected. Rats are fasted for 48 hours and pylorus ligation is carried out under light anesthesia. Drug is given perorally. 16 hours after ligation the animals are sacrificed and the stomach is removed. The induced erosion is measured in area and scored as ulcer index (U.I.). The data are expressed as % inhibition to the control value from the equation described below.

[4] = Acute toxicity (Litchfield & Wilcoxon method); details: rat, in vivo
Method: The acute toxicity of Compound 3 is determined by Litchfield & Wilcoxon method using SD rats.

IC50 [1]: 1290 µM
inhibition at 125 µg/mL [1]: 14.6%
inhibition at 250 µg/mL [1]: 50.4%
inhibition at 500 µg/mL [1]: 58.6%
inhibition at 1000 µg/mL [1]: 75.1%
remaining at 96 h [2]: 100%
remaining at 192 h [2]: 51.3%
remaining at 240 h [2]: 9.3%
remaining at 288 h [2]: 1.5%
SMILES: Cc1cc(S(=O)(=O)O)c2c(C)ccc(C(C)C)cc1-2 [GAS, sodium guaiazulene-3-sulfonate, reference compound]

SMILES: Cc1cc(S(=O)(=O)O)c2cccccc1-2 [compound 1, Sodium 3-methyl-azulene sulfonate]
inhibition in vivo at 500 mg/kg [3]: 52.4%

SMILES: CCc1cc(S(=O)(=O)O)c2cccccc1-2 [compound 2, Sodium 3-ethyl-azulene sulfonate]
inhibition in vivo at 500 mg/kg [3]: 100%

SMILES: CCc1cc(S(=O)(=O)O)c2cc(C(C)C)cccc1-2 [compound 3, Sodium 3-ethyl-7-isopropyl-azulene sulfonate]
IC50 [1]: 1070 µM
inhibition at 125 µg/mL [1]: 17.3%
inhibition at 250 µg/mL [1]: 47.6%
inhibition at 500 µg/mL [1]: 63.6%
inhibition at 1000 µg/mL [1]: 97.1%
LD50 ([4]; ip, I.P., female, 95% confidence limits): 180 mg/kg
LD50 ([4]; ip, I.P., male, 95% confidence limits): 165 mg/kg
LD50 ([4]; iv, I.V., female, 95% confidence limits): 153 mg/kg
LD50 ([4]; iv, I.V., male): 130 mg/kg
LD50 ([4]; po, P.O., female, 95% confidence limits): 1200 mg/kg
LD50 ([4]; po, P.O., male, 95% confidence limits): 1000 mg/kg
remaining at 96 h [2]: 100%
remaining at 192 h [2]: 100%
remaining at 240 h [2]: 100%
remaining at 288 h [2]: 100%
stability, in words ([2]; compared with sodium guaiazulene sulfonate): greatly improved
inhibition in vivo at 500 mg/kg [3]: 100%

IC50 [1]: 1830 µM
inhibition at 125 µg/mL [1]: 17.3%
inhibition at 250 µg/mL [1]: 28.9%
inhibition at 500 µg/mL [1]: 65.7%
inhibition at 1000 µg/mL [1]: 55.8%
SMILES: CCc1cc(S(=O)(=O)O)c2ccc(C(C)C)ccc1-2 [compound 4, Sodium 3-ethyl-6-isopropyl-azulene sulfonate]
inhibition in vivo at 500 mg/kg [3]: 100%

IC50 [1]: 3790 µM
inhibition at 125 µg/mL [1]: 0.26%
inhibition at 250 µg/mL [1]: 3.57%
inhibition at 500 µg/mL [1]: 24.5%
inhibition at 1000 µg/mL [1]: 50.4%
SMILES: CC(C)=CCCC(C)c1cc(S(=O)(=O)O)c2cccccc1-2 (centres unmarked) [compound 5, Sodium 3-(1'-R, S-1',5'-dimethyl-4'-hexene) azulene sulfonate]
inhibition in vivo at 500 mg/kg [3]: 95.5%

SMILES: CC(C)=CCC[C@H](C)c1cc(S(=O)(=O)O)c2cccccc1-2 [compound 8, Sodium 3-(1'-S-1',5'-dimethyl-4'-hexene)-azulene sulfonate]
inhibition in vivo at 500 mg/kg [3]: 69.9%

SMILES: CCCc1cc(S(=O)(=O)O)c2cccccc1-2 [compound 12, Sodium 3-propyl-azulene sulfonate]
inhibition in vivo at 100 mg/kg ([3]; 100 mg/kg): 78.5%

SMILES: Cc1cc(S(=O)(=O)O)c2cc(C(C)C)cccc1-2 [compound 13, Sodium 3-methyl-7-isopropyl-azulene sulfonate]
% inhibition (ulcer index) ([3]; 100 mg/kg): 69.7%

SMILES: CCCCc1cc(S(=O)(=O)O)c2cccccc1-2 [compound 14, Sodium 3-n-butyl-azulene sulfonate]
inhibition in vivo at 100 mg/kg ([3]; 100 mg/kg): 32.7%

SMILES: CCCCCc1cc(S(=O)(=O)O)c2cccccc1-2 [compound 15, Sodium 3-n-pentyl-azulene sulfonate]
inhibition in vivo at 100 mg/kg ([3]; 100 mg/kg): 64.3%

SMILES: CC(C)c1cccc2c(S(=O)(=O)O)ccc-2c1 [compound 16, Sodium 5-isopropyl-azulene sulfonate]
inhibition in vivo at 100 mg/kg ([3]; 100 mg/kg): 62%

SMILES: CCCc1cc(S(=O)(=O)O)c2cc(C(C)C)cccc1-2 [compound 17, Sodium 7-isopropyl-3-n-propyl-azulene sulfonate]
inhibition in vivo at 100 mg/kg ([3]; 100 mg/kg): 31.2%

SMILES: CCCCc1cc(S(=O)(=O)O)c2cc(C(C)C)cccc1-2 [compound 18, Sodium 7-isopropyl-3-n-butyl-azulene sulfonate]
inhibition in vivo at 100 mg/kg ([3]; 100 mg/kg): 17.2%

SMILES: CCCCCc1cc(S(=O)(=O)O)c2cc(C(C)C)cccc1-2 [compound 19, Sodium 7-isopropyl-3-n-pentyl-azulene sulfonate]
inhibition in vivo at 100 mg/kg ([3]; 100 mg/kg): -56.3%

SMILES: CC(C)=CCCC(C)c1cc(S(=O)(=O)O)c2cc(C(C)C)cccc1-2 (centres unmarked) [compound 20, Sodium 7-isopropyl-3-(1'-R, S-1',5'-dimethyl-4'-hexene)-azulene sulfonate]
inhibition in vivo at 100 mg/kg ([3]; 100 mg/kg): 43.8%

SMILES: CC(C)=CCC[C@@H](C)c1cc(S(=O)(=O)O)c2cc(C(C)C)cccc1-2 [compound 21, Sodium 7-isopropyl-3-(1'-R-1',5'-dimethyl-4'-hexene)-azulene sulfonate]
inhibition in vivo at 100 mg/kg ([3]; 100 mg/kg): 14.5%

SMILES: CC(C)=CCC[C@H](C)c1cc(S(=O)(=O)O)c2cc(C(C)C)cccc1-2 [compound 22, Sodium 7-isopropyl-3-(1'-S-1',5'-dimethyl-4'-hexene)-azulene sulfonate]
inhibition in vivo at 100 mg/kg ([3]; 100 mg/kg): -19.5%

SMILES: CC(C)c1cccc2c(Cc3ccccc3)cc(S(=O)(=O)O)c-2c1 [compound 23, Sodium 7-isopropyl-3-benzyl-azulene sulfonate]
inhibition in vivo at 100 mg/kg ([3]; 100 mg/kg): 9.8%

SMILES: COc1ccccc2c(S(=O)(=O)O)cc(C)c1-2 [compound 24, Sodium 4-methoxy-3-methyl-azulene sulfonate]
inhibition in vivo at 100 mg/kg ([3]; 100 mg/kg): 63.4%

SMILES: CCc1cc(S(=O)(=O)O)c2ccccc(OC)c1-2 [compound 25, Sodium 4-methoxy-3-ethyl-azulene sulfonate]
inhibition in vivo at 100 mg/kg ([3]; 100 mg/kg): 75.6%

SMILES: CCCc1cc(S(=O)(=O)O)c2ccccc(OC)c1-2 [compound 26, Sodium 4-methoxy-3-propyl-azulene sulfonate]
inhibition in vivo at 100 mg/kg ([3]; 100 mg/kg): 75.6%

SMILES: CCCCc1cc(S(=O)(=O)O)c2ccccc(OC)c1-2 [compound 27, Sodium 4-methoxy-3-butyl-azulene sulfonate]
inhibition in vivo at 100 mg/kg ([3]; 100 mg/kg): 66.3%

SMILES: CCCCCc1cc(S(=O)(=O)O)c2ccccc(OC)c1-2 [compound 28, Sodium 4-methoxy-3-pentyl-azulene sulfonate]
inhibition in vivo at 100 mg/kg ([3]; 100 mg/kg): 42%

SMILES: CCCCCCc1cc(S(=O)(=O)O)c2ccccc(OC)c1-2 [compound 29, Sodium 4-methoxy-3-hexyl-azulene sulfonate]
inhibition in vivo at 100 mg/kg ([3]; 100 mg/kg): 38%

SMILES: COc1ccc(C(C)C)cc2c(S(=O)(=O)O)cc(C)c1-2 [compound 30, Sodium 7-isopropyl-4-methoxy-3-methyl-azulene sulfonate]
inhibition in vivo at 100 mg/kg ([3]; 100 mg/kg): 58.7%

SMILES: CCc1cc(S(=O)(=O)O)c2cc(C(C)C)ccc(OC)c1-2 [compound 31, Sodium 7-isopropyl-4-methoxy-3-ethyl-azulene sulfonate]
inhibition in vivo at 100 mg/kg ([3]; 100 mg/kg): 67.6%

SMILES: CCCc1cc(S(=O)(=O)O)c2cc(C(C)C)ccc(OC)c1-2 [compound 32, Sodium 7-isopropyl-4-methoxy-3-propyl-azulene sulfonate]
inhibition in vivo at 100 mg/kg ([3]; 100 mg/kg): 44.1%

SMILES: CCCCc1cc(S(=O)(=O)O)c2cc(C(C)C)ccc(OC)c1-2 [compound 33, Sodium 7-isopropyl-4-methoxy-3-butyl-azulene sulfonate]
inhibition in vivo at 100 mg/kg ([3]; 100 mg/kg): 64.8%

SMILES: CCCCCc1cc(S(=O)(=O)O)c2cc(C(C)C)ccc(OC)c1-2 [compound 34, Sodium 7-isopropyl-4-methoxy-3-pentyl-azulene sulfonate]
inhibition in vivo at 100 mg/kg ([3]; 100 mg/kg): -14.6%

SMILES: Cc1cc(S(=O)(=O)O)c2cccccc1-2 [compound 35, 3-methyl-azulene sulfonic acid aluminum salt]
inhibition in vivo at 100 mg/kg ([3]; 100 mg/kg): 16.5%

SMILES: CCc1cc(S(=O)(=O)O)c2cccccc1-2 [compound 36, 3-ethyl-azulene sulfonic acid aluminum salt]
inhibition in vivo at 100 mg/kg ([3]; 100 mg/kg): 28.6%

SMILES: Cc1cc(S(=O)(=O)O)c2cc(C(C)C)cccc1-2 [compound 37, 7-isopropyl-3-methyl-azulene sulfonic acid aluminum salt]
inhibition in vivo at 100 mg/kg ([3]; 100 mg/kg): 58.4%

SMILES: CCc1cc(S(=O)(=O)O)c2cc(C(C)C)cccc1-2 [compound 38, 7-isopropyl-3-ethyl-azulene sulfonic acid aluminum salt]
inhibition in vivo at 100 mg/kg ([3]; 100 mg/kg): 40.3%
